Results published in patent publication US5023239A, “Sialosyl cholesterol, process for producing the same, and neuropathy remedy comprising the same” (MECT Corporation, priority 1986, dated 1991).

Experiments:
[1] = tested on: Neuroblastoma Cell, Neuro 2a Strain; assay: Effect on proliferation / neurite propagation of neuroblastoma cell, Neuro 2a strain; format: cell-based, mouse; details: for activity (in words): 24 hours cultivation; for minimal effective concentration: 48 hours after addition
Method: Experiments for confirming the activity of the present compound for promoting propagation of neurites will be explained below.
Effect On Proliferation of Neuroblastoma Cell, Neuro 2a Strain
Neuro 2a was floated on culture medium consisting of 90% of Dulbecco's Modified Eagle's Midium, and 10% of fetal calf serum (FCS), and containing 100 units/ml of penicillin G and 100 micro g/ml of streptomycin sulfate, and then cultivated at 37° C. in a carbon dioxide incubator containing air into which 5% of carbon dioxide was incorporated. The vessel as used was a polystyrene tray having a diameter of 60 mm. 1 to 2×10^4 of the neuroblastoma cells were implanted in each tray and cultivated for 48 hours. The FCS-containing culture was removed from the resultant cell culture. […] When 24 and 48 hours had passed after the addition of these medicines, the number of the living cells increased in the culture, the number of the neurites increased, and the length of the neurites were measured. The experiment was conducted on three trays with respect to each concentration. The resultant data were expressed by average value+standard error (S.E).

ddy male mice = assay: Acute toxicity test, intravenous injection; format: in vivo, mouse; details: ddy male mice of 45 weeks age
Method: Acute toxicity test was conducted by intravenously injecting the compounds into ddy male mice of 45 weeks age.

Molecule: <NAcNeu (alpha 2-8) NAcNeu (alpha 2-3)>Gal (beta 1-3) GalNAc (beta 1-4)- NAcNeu-(alpha 2-8) <NAcNeu- (alpha 2-3)>-Gal (beta 1-4) Glc (beta 1-1)-Ceramide [GQlb]
- activity (in words) [1]: do not provide any activity
- Length of neurite ± S.E. ([1]; 24 hrs, 10 ng/ml): 88.5 ± 5.00 μm/cell
- Number of neurite propagated cells ([1]; 24 hrs, 10 ng/ml): 174
- Number of neurites ± S.E. ([1]; 24 hrs, 10 ng/ml): 1.3 ± 0.05 number/cell
- Rate of neurite propagation (%) ([1]; 24 hrs, 10 ng/ml): 51.8%
- Total number of cells ([1]; 24 hrs, 10 ng/ml): 336
- Length of neurite ± S.E. ([1]; 24 hrs, 100 ng/ml): 86.0 ± 4.72 μm/cell
- Number of neurite propagated cells ([1]; 24 hrs, 100 ng/ml): 159
- Number of neurites ± S.E. ([1]; 24 hrs, 100 ng/ml): 1.3 ± 0.04 number/cell
- Rate of neurite propagation (%) ([1]; 24 hrs, 100 ng/ml): 48.0%
- Total number of cells ([1]; 24 hrs, 100 ng/ml): 331
- Length of neurite ± S.E. ([1]; 24 hrs, 1 μg/ml): 97.6 ± 4.95 μm/cell
- Number of neurite propagated cells ([1]; 24 hrs, 1 μg/ml): 157
- Number of neurites ± S.E. ([1]; 24 hrs, 1 μg/ml): 1.4 ± 0.05 number/cell
- Rate of neurite propagation (%) ([1]; 24 hrs, 1 μg/ml): 51.0%
- Total number of cells ([1]; 24 hrs, 1 μg/ml): 308
- Length of neurite ± S.E. ([1]; 24 hrs, 10 μg/ml): 114.9 ± 5.98 μm/cell
- Number of neurite propagated cells ([1]; 24 hrs, 10 μg/ml): 205
- Number of neurites ± S.E. ([1]; 24 hrs, 10 μg/ml): 1.4 ± 0.06 number/cell
- Rate of neurite propagation (%) ([1]; 24 hrs, 10 μg/ml): 63.9%
- Total number of cells ([1]; 24 hrs, 10 μg/ml): 321
- minimal effective concentration [1]: 10 micro g/ml
- Length of neurite ± S.E. ([1]; 48 hrs, 10 ng/ml): 100.4 ± 5.76 μm/cell
- Number of neurite propagated cells ([1]; 48 hrs, 10 ng/ml): 158
- Number of neurites ± S.E. ([1]; 48 hrs, 10 ng/ml): 1.5 ± 0.06 number/cell
- Rate of neurite propagation (%) ([1]; 48 hrs, 10 ng/ml): 42.6%
- Total number of cells ([1]; 48 hrs, 10 ng/ml): 371
- Length of neurite ± S.E. ([1]; 48 hrs, 100 ng/ml): 90.4 ± 6.06 μm/cell
- Number of neurite propagated cells ([1]; 48 hrs, 100 ng/ml): 153
- Number of neurites ± S.E. ([1]; 48 hrs, 100 ng/ml): 1.2 ± 0.04 number/cell
- Rate of neurite propagation (%) ([1]; 48 hrs, 100 ng/ml): 44.1%
- Total number of cells ([1]; 48 hrs, 100 ng/ml): 347
- Length of neurite ± S.E. ([1]; 48 hrs, 1 μg/ml): 106.5 ± 6.40 μm/cell
- Number of neurite propagated cells ([1]; 48 hrs, 1 μg/ml): 182
- Number of neurites ± S.E. ([1]; 48 hrs, 1 μg/ml): 1.3 ± 0.04 number/cell
- Rate of neurite propagation (%) ([1]; 48 hrs, 1 μg/ml): 47.4%
- Total number of cells ([1]; 48 hrs, 1 μg/ml): 384
- Length of neurite ± S.E. ([1]; 48 hrs, 10 μg/ml): 122.5 ± 6.99 μm/cell
- Number of neurite propagated cells ([1]; 48 hrs, 10 μg/ml): 214
- Number of neurites ± S.E. ([1]; 48 hrs, 10 μg/ml): 1.3 ± 0.04 number/cell
- Rate of neurite propagation (%) ([1]; 48 hrs, 10 μg/ml): 61.8%
- Total number of cells ([1]; 48 hrs, 10 μg/ml): 346

Molecule: CC(=O)NC1C(O)CC(OC2CCC3(C)C(=CCC4C3CCC3(C)C(C(C)CCCC(C)C)CCC43)C2)(C(=O)O)OC1C(O)C(O)CO [Compound (4), sodium 5-acetoamide-2-O-(5-cholesten-3-yl)-3,5-dideoxy-alpha-D-glycero-D-galacto-2-nonulopyranosonate]
- LD50 (ddy male mice): 93 mg/kg
- activity (in words) ([1]; 10 ng/ml): indicated activity
- Length of neurite ± S.E. ([1]; 24 hrs, 10 ng/ml): 92.4 ± 5.31 μm/cell
- Number of neurite propagated cells ([1]; 24 hrs, 10 ng/ml): 131
- Number of neurites ± S.E. ([1]; 24 hrs, 10 ng/ml): 1.2 ± 0.04 number/cell
- Rate of neurite propagation (%) ([1]; 24 hrs, 10 ng/ml): 31.5%
- Total number of cells ([1]; 24 hrs, 10 ng/ml): 416
- Length of neurite ± S.E. ([1]; 24 hrs, 100 ng/ml): 96.7 ± 4.12 μm/cell
- Number of neurite propagated cells ([1]; 24 hrs, 100 ng/ml): 177
- Number of neurites ± S.E. ([1]; 24 hrs, 100 ng/ml): 1.2 ± 0.03 number/cell
- Rate of neurite propagation (%) ([1]; 24 hrs, 100 ng/ml): 41.5%
- Total number of cells ([1]; 24 hrs, 100 ng/ml): 427
- Length of neurite ± S.E. ([1]; 24 hrs, 1 μg/ml): 130.4 ± 6.12 μm/cell
- Number of neurite propagated cells ([1]; 24 hrs, 1 μg/ml): 190
- Number of neurites ± S.E. ([1]; 24 hrs, 1 μg/ml): 1.2 ± 0.03 number/cell
- Rate of neurite propagation (%) ([1]; 24 hrs, 1 μg/ml): 50.9%
- Total number of cells ([1]; 24 hrs, 1 μg/ml): 373
- minimal effective concentration [1]: 10 ng/mL
- Length of neurite ± S.E. ([1]; 48 hrs, 10 ng/ml): 121.9 ± 5.18 μm/cell
- Number of neurite propagated cells ([1]; 48 hrs, 10 ng/ml): 219
- Number of neurites ± S.E. ([1]; 48 hrs, 10 ng/ml): 1.2 ± 0.03 number/cell
- Rate of neurite propagation (%) ([1]; 48 hrs, 10 ng/ml): 46.9%
- Total number of cells ([1]; 48 hrs, 10 ng/ml): 467
- Length of neurite ± S.E. ([1]; 48 hrs, 100 ng/ml): 126.0 ± 6.10 μm/cell
- Number of neurite propagated cells ([1]; 48 hrs, 100 ng/ml): 193
- Number of neurites ± S.E. ([1]; 48 hrs, 100 ng/ml): 1.2 ± 0.04 number/cell
- Rate of neurite propagation (%) ([1]; 48 hrs, 100 ng/ml): 47.8%
- Total number of cells ([1]; 48 hrs, 100 ng/ml): 404
- Length of neurite ± S.E. ([1]; 48 hrs, 1 μg/ml): 156.3 ± 8.32 μm/cell
- Number of neurite propagated cells ([1]; 48 hrs, 1 μg/ml): 182
- Number of neurites ± S.E. ([1]; 48 hrs, 1 μg/ml): 1.2 ± 0.04 number/cell
- Rate of neurite propagation (%) ([1]; 48 hrs, 1 μg/ml): 49.3%
- Total number of cells ([1]; 48 hrs, 1 μg/ml): 369
- growth / propagation of neurites (in words) ([1]; Neuro 2a culture): strong activity for the propagation of the neurites
- activity relative to GMl (times as high) ([1]; vs GMl, from minimal effective concentrations at 48 hours, molecular weights considered): 420 times
- activity relative to GQlb (times as high) ([1]; vs GQlb, from minimal effective concentrations at 48 hours, molecular weights considered): 270 times
